Laboratory results: patent US20180289655A1, “Methods and Compositions for the Intravenous Administration of Fumarates for the Treatment of Neurological Diseases” (Biogen MA Inc., priority 2015, published 2018)
Structures can show the parent of a compound that is named as a salt.

Legend:
[1] = Solubility of DMF in 20% Captisol; type: physicochemical; details: aqueous with cosolvent or surfactant or cyclodextrin, thermodynamic from solid, room temperature (heated at 50° C., cooled, filtered)
Description: The preparations were heated at 50° C. for 5-10 min, followed by cooled to room temperature.

[2] = Chemical stability of DMF nano suspension (HPLC); type: physicochemical; details: Day 1, room temperature
Description: 5.0 ml of pH5.0 phosphate buffer (Fisher Scientific, Lot No. 100498) were added to the tube. Further, ZrO2 beads (˜10 ml) were also added to the tube. The sample was vortexed in a Fisher Scientific multi-tube vortexer at 2500 rpm for 60 min and the particle size was checked via optical microscopic image. An additional 5.0 ml of pH5 phosphate buffer was added and the sample was further milled overnight. The temperature of the sample was ˜60° C. due to the overnight milling. The particle size was determined via microscopic image and Mastersizer 2000.
The suspension was stored at room temperature and samples were taken at day 1 and day 7. The stability of the samples was examined using HPLC method for chemical stability, PSD and microscopic image (data not provided) for physical stability.

[3] = Solubility of DMF in HPbCD, Captisol, saline and D5W at ambient temperature; type: physicochemical; details: thermodynamic from solid
Description: Solubility of DMF in these media was determined at ambient temperature by preparing a saturated solution.

[4] = MMF exposure in plasma and tissues after DMF PO or IV once daily for 5 days (LC-MS/MS); type: in vivo, Sprague-Dawley rats
Description: On Day 5 of the study 3 time points were evaluated: 10 minutes, 2 hours, and 6 hours after dosing, as illustrated in the timeline. At each time point, 5 animals from each group were sacrificed. At the 2 and 6 hour time points, the tissue samples from groups E, F, I, and J from each animal were split, with half of the tissue being processed for MMF exposure, and half processed for qRT-PCR. Note vehicle groups (C, D, G, and H) were not processed for MMF measurement and only used for qRT-PCR.
At 10 minutes, 2 and 6 hours, plasma and tissues (forebrain, cerebellum, jejunum, kidney and spleen) from cohorts of animals (Groups A, B, E, F, I, J) were collected to measure the concentration of MMF in the sample. MMF was quantitated using a non-GLP, but validated LC/MS/MS assay. Statistical comparisons were performed using the non-parametric Mann-Whitney U test.
As mentioned previously, Sprague-Dawley rats were sacrificed and terminal plasma and tissue samples were collected 10 minutes, 2 and 6 hours after dosing and MMF exposure in plasma, brain, cerebellum, jejunum and kidney was determined as follows. Tissues were snap frozen on dry ice after dissection. Immediately prior to blood collection, 4 μL of 250 mg/mL stock mixture of sodium fluoride (NaF) in water was added to each 100 μL of blood collected in a lithium heparin tube. The stock NaF mixture was prepared on the day of use and kept as a homogenous suspension through continuous stirring on a stir plate. Whole blood was added to the tube, and then samples were inverted several times and stored on wet ice (2° C. to 8° C.). All samples were centrifuged within 30 minutes of collection at 4° C. for 15 minutes at 1500×g (4200 RPM). Plasma was then transferred into pre-chilled tubes, immediately frozen on dry ice and maintained frozen (≤−80° C.) until analysis.
Aliquots (50 μL) of either plasma or tissue homogenate samples were extracted by protein precipitation with acetonitrile containing methylethyl fumarate or −4C13-MMF as the internal standard. For tissue samples, aliquots of homogenization solution (‘blank’ plasma with 12.5 mg/mL of NaF) were added to the tissue samples. The tissue samples were homogenized at 6.5 m/s for 60 seconds on a Fast Prep Tissue Homogenizer prior to protein precipitation. Concentrations of MMF in plasma, forebrain, cerebellum, jejunum, spleen and kidney samples were determined using qualified LC-MS/MS assays in the respective matrices. Data collection and integration was accomplished using an API 5500 triple quadrupole mass spectrometer with a turbo ion spray interface (AB Sciex, Foster City, Calif.), and Analyst software (version 1.6.1). The peak area ratios of MMF relative to its internal standard were used to construct a standard curve using a quadratic regression with a 1/x^2 weighting. The lower limit of quantitation (LLOQ) was 10 ng/mL for all four assays. The performances of the assays were monitored by the precision and accuracy of the standards and quality control samples.

COC(=O)/C=C/C(=O)OC [DMF, dimethyl fumarate]
solubility [1]: 4.11 mg/mL
Area % of DMF remaining [2]: 99.9 area %
solubility at 24 h ([3]; aqueous with cosolvent or surfactant or cyclodextrin, 40% Captisol, pH 4.42): 7.9 mg/mL
solubility at 24 h ([3]; pH 3.9, aqueous with cosolvent or surfactant or cyclodextrin, 40% HPbCD, pH 3.90): 15.1 mg/mL
solubility at 24 h ([3]; pH 4.3, aqueous with cosolvent or surfactant or cyclodextrin, 5% HPbCD, pH 4.30): 4.03 mg/mL
solubility at 24 h ([3]; pH 4.8, aqueous with cosolvent or surfactant or cyclodextrin, 5% Captisol, pH 4.80): 3.18 mg/mL
solubility at 24 h ([3]; saline or isotonic, D5W (5% Dextrose in water), pH 6.32): 2.39 mg/mL
solubility at 24 h ([3]; saline or isotonic, Saline (0.9% NaCl), pH 6.67): 2.08 mg/mL
MMF level in any tissue ([4]; 6 hours after IV or PO DMF dosing): no detectable MMF in any tissue
MMF level in forebrain or cerebellum ([4]; 6 hours after dosing, PO or IV): undetectable
MMF level in any tissue ([4]; DMF IV 30 mg/kg, 2 hours): no MMF was detectable in any tissue
MMF level in brain ([4]; DMF IV 30 mg/kg, 2 hours): below the level of quantitation
MMF level in plasma ([4]; DMF IV 30 mg/kg, 6 hours): not detectable
MMF levels in kidney, jejunum and spleen ([4]; DMF PO 100 mg/kg, 2 hours): markedly decreased, but detectable
MMF levels in jejunum, kidney and spleen, PO versus IV ([4]; PO 100 mg/kg vs IV 30 mg/kg, 10 minutes): these differences were not significant
